Assay results: publication PMC6941823, “A dispensable paralog of succinate dehydrogenase subunit C mediates standing resistance towards a subclass of SDHI fungicides in Zymoseptoria tritici” (PLoS Pathogens, 2019)
Read-outs that look alike come from different tables or passages of the source.

Experiments:
[1] = target: WT-SQR (SDHC), IPO323 mitochondria (Zymoseptoria tritici, UniProt F9X9V6+F9XH52+O42772); assay: Succinate-quinone (SQR) SDHI sensitivity assay on purified mitochondria, IPO323; assay type: biochemical
Summary of the method: (§1)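 Mitochondria purified from each strain were used for succinate:ubiquinone/DCPIP reductase assays, with suspensions adjusted to similar initial velocity (1 OD595nm hour^-1). Inhibitor was tested at 0.047 nM–50 μM in 4x steps (11 concentrations plus DMSO). IC50 came from non-linear fits of absorbance slopes (OD/min) against log concentration.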

[2] = target: SQR of 06STD024 (SDHC / altC) mitochondria (Zymoseptoria tritici, UniProt A0A1X7RQW2+F9X9V6+F9XH52+O42772); assay: Succinate-quinone (SQR) SDHI sensitivity assay on purified mitochondria, 06STD024; assay type: biochemical
Summary of the method: (§2)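 Succinate:ubiquinone/DCPIP reductase inhibition measured on purified mitochondria from Zymoseptoria tritici strains carrying either a single C-subunit gene (ZtSDHC1, ZtSDHC1_A84I or ZtSDHC3) or both ZtSDHC1 and ZtSDHC3; pTet::SDHC3 transformant tested under repressed and induced conditions.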

[3] = target: SQR (SDHC) of D024 SDHC3 KO mitochondria (Zymoseptoria tritici, UniProt F9X9V6+F9XH52+O42772); assay: Succinate-quinone (SQR) SDHI sensitivity assay on purified mitochondria, 06STD024 SDHC3 KO; assay type: biochemical
Summary of the method: as §1

[4] = tested on: SQR (SDHC / altC) of IPO323 pTet::SDHC3 transformant, induced; assay: Succinate-quinone (SQR) SDHI sensitivity assay on purified mitochondria, IPO323 pTet::SDHC3 induced; assay type: biochemical, Zymoseptoria tritici; settings: IPO323 pTet::SDHC3 transformant grown in the absence of doxycycline; mean of three ± SD
Summary of the method: as §2

[5] = target: SQR (SDHC / altC) of IPO323 pTet::SDHC3 transformant, repressed (Zymoseptoria tritici, UniProt A0A1X7RQW2+F9X9V6+F9XH52+O42772); assay: Succinate-quinone (SQR) SDHI sensitivity assay on purified mitochondria, IPO323 pTet::SDHC3 repressed; assay type: biochemical
Summary of the method: as §2

[6] = tested on: Zymoseptoria tritici field and genetically modified strains; assay: Liquid culture assay for fungicide sensitivity determination; assay type: cell-based; settings: Zymoseptoria tritici, liquid culture sensitivity
Summary of the method: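 EC50s from liquid culture growth tests with field isolates and modified strains. Population monitoring used final concentrations 100 to 0.0001 mg.L^-1 in 10x steps (7 levels plus DMSO control); refined panel profiling used 0.5 mM to 0.47 nM in 4x steps (11 levels plus DMSO).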

[7] = tested on: Zymoseptoria tritici isolates; assay: Growth tests on solid agar at discriminatory fungicide concentrations; assay type: cell-based; settings: AE agar, pydiflumetofen 0.1 mg.L^-1, 18 DPI (procedure of Fig 6)
Excerpt: Fig 6 Resistance to SHA-SDHIs in Z. tritici EU populations. […] Sensitivity data are sorted by genotype according to the presence of the ZtSDHC3 gene. ** p value of 0.0029 in Welch’s corrected unpaired t-test. (B) Solid agar growth of a collection of 93 Z. tritici isolates sampled in 2009 (same set as above). Individual strains from this collection are boxed and numbered 1 to 93. Boxes A and B correspond to reference resistant strains 06STD024 and 07STGB009 respectively. Box C corresponds to IPO323 reference sensitive isolate. The yellow framed boxes correspond to strains carrying the ZtSDHC3 gene. Yellow arrow designates strain 09STIR20.1 (number 78) carrying a non-functional alt-SDHC (frameshift, S6 Table).
A large scale spotting assay of 96 isolates (Fig 6) was performed using the V&P 96 floating pin tool VP408FP6 (V&P Scientific), equipped with flat tip FP6 pins of 1.58 mm diameter (resulting in approx. 0.4 μl transfer volume). Source cultures for cell spotting were grown in 100 μl YPD liquid medium in a 96 well flat bottom plate (Corning, 3370) at 18°C for 11 days (average cell density of 3.5·10^6/ml), then diluted 1:2x in fresh YPD medium and incubated for another 1.5 h before transfer with the pin tool (approx. 700 cells per spot) onto AE agar with or without fungicide. Plates were incubated at 20°C in the dark for up to 18 days. Smaller scale spotting assays (Figs 4 and 8) were performed using 5 days V8-agar plates inoculums adjusted to 2.10^6 spores.mL^-1 in water and diluted in steps of 3. 2μL of spore suspension was spotted on the plates, and the plates were incubated shielded from light at 21°C for 6 days.

[8] = IC50 ratio compared to IPO323 values

SQR of 06STD024 (SDHC / altC) mitochondria, sequence (A0A1X7RQW2 36-181): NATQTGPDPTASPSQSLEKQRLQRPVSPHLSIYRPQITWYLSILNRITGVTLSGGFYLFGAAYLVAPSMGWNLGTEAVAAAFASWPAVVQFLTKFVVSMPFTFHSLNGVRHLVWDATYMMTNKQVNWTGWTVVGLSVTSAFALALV
SQR of 06STD024 (SDHC / altC) mitochondria, sequence (O42772 19-297): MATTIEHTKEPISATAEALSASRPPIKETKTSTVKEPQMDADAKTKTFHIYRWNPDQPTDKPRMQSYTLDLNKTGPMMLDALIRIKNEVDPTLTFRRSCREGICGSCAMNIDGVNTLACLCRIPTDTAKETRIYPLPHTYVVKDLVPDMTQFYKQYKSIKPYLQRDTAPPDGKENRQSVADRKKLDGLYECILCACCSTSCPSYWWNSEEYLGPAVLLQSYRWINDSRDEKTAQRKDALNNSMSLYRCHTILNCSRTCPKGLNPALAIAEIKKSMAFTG
SQR of 06STD024 (SDHC / altC) mitochondria, sequence (F9X9V6 1-193): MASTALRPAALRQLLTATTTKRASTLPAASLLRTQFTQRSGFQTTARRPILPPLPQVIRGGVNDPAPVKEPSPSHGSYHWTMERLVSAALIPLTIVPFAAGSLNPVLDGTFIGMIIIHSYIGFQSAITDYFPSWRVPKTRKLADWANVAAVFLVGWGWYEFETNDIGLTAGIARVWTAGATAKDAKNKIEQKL
SQR of 06STD024 (SDHC / altC) mitochondria, sequence (F9XH52 44-187): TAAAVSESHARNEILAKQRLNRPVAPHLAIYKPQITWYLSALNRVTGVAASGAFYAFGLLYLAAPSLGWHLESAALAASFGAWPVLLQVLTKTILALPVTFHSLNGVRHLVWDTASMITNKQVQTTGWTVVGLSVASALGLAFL
SQR of 06STD024 (SDHC / altC) mitochondria, sequence (F9WWR1 29-643 partner): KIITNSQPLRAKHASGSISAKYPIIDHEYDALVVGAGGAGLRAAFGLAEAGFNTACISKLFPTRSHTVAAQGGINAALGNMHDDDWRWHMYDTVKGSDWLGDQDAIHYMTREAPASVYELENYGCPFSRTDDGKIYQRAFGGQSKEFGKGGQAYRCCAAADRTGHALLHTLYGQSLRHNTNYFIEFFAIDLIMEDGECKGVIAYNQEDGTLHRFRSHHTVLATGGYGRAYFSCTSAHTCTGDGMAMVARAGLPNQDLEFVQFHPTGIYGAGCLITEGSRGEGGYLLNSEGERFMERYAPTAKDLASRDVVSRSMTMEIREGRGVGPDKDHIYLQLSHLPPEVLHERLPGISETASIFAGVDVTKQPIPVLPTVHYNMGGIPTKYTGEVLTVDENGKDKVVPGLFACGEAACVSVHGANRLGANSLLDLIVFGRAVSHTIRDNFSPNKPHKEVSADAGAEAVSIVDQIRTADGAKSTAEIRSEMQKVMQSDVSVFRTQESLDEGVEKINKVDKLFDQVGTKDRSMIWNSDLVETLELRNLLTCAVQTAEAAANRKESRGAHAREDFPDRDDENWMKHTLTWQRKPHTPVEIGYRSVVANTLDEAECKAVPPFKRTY
SQR (SDHC) of D024 SDHC3 KO mitochondria, sequence (F9XH52 44-187): as the sequence (F9XH52 44-187) above
SQR (SDHC) of D024 SDHC3 KO mitochondria, sequence (O42772 19-297): as the sequence (O42772 19-297) above
SQR (SDHC) of D024 SDHC3 KO mitochondria, sequence (F9X9V6 1-193): as the sequence (F9X9V6 1-193) above
SQR (SDHC) of D024 SDHC3 KO mitochondria, sequence (F9WWR1 29-643 partner): as the sequence (F9WWR1 29-643 partner) above
SQR (SDHC / altC) of IPO323 pTet::SDHC3 transformant, repressed, sequence (F9XH52 44-187): as the sequence (F9XH52 44-187) above
SQR (SDHC / altC) of IPO323 pTet::SDHC3 transformant, repressed, sequence (O42772 20-297): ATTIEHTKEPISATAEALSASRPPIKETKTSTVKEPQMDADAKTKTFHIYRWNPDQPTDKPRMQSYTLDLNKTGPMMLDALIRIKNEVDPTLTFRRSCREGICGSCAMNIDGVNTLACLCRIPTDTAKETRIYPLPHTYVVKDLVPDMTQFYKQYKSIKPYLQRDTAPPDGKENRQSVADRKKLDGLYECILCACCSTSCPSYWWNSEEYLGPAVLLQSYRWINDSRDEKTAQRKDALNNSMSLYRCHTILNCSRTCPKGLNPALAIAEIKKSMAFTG
SQR (SDHC / altC) of IPO323 pTet::SDHC3 transformant, repressed, sequence (F9X9V6 1-193): as the sequence (F9X9V6 1-193) above
SQR (SDHC / altC) of IPO323 pTet::SDHC3 transformant, repressed, sequence (A0A1X7RQW2 36-181): as the sequence (A0A1X7RQW2 36-181) above
SQR (SDHC / altC) of IPO323 pTet::SDHC3 transformant, repressed, sequence (F9WWR1 41-643 partner): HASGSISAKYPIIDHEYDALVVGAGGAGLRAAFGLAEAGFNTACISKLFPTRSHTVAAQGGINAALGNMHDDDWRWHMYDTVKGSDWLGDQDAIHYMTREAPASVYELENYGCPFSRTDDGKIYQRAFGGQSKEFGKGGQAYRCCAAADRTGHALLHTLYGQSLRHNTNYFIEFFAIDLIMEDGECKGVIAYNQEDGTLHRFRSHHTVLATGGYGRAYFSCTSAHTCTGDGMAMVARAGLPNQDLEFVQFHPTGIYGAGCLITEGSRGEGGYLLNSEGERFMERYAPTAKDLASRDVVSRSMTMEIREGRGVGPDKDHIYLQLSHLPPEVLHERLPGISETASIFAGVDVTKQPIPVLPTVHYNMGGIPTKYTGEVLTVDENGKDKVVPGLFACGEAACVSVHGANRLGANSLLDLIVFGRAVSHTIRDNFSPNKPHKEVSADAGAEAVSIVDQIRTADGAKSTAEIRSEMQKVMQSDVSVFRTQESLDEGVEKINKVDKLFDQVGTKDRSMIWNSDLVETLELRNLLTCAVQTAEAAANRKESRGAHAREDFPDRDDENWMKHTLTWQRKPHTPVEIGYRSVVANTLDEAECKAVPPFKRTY

## CON(C(=O)c1cn(C)nc1C(F)F)[C@@H](C)Cc1c(Cl)cc(Cl)cc1Cl [Pydiflumetofen]
[1]
  IC50: 0.3 ± 0.04 nM
[2]; [8]
  RF (resistance factor), 06STD024 (SDHC / altC): 4.6
[2]; mitochondria of field isolate 06STD024, mean of three ± SD
  IC50: 1.4 ± 0.05 nM
[3]; [8]
  RF (resistance factor), D024 SDHC3 KO (SDHC): 1.1
[3]; mitochondria of 06STD024 ZtSDHC3 deletion mutant, mean of three ± SD
  IC50: 0.3 ± 0.07 nM
[4]
  IC50: 0.9 ± 0.3 nM
[5]; [8]
  RF (resistance factor), pTet Repressed (SDHC / altC): 1.7
[5]; IPO323 pTet::SDHC3 transformant grown in presence of 30 mg.L^-1 doxycycline, mean of three ± SD
  IC50: 0.5 ± 0.1 nM
[6]; read-out: EC50 (nM) Mean, strain 06STD024
  EC50: 28.2 nM
[6]; read-out: EC50 (nM) Mean, strain 07STGB009
  EC50: 24.5 nM
[6]; read-out: EC50 (nM) Mean, strain 09STD041
  EC50: 19.8 nM
[6]; read-out: EC50 (nM) Mean, strain 09STD053
  EC50: 6.4 nM
[6]; read-out: EC50 (nM) Mean, strain 09STF011
  EC50: 17.8 nM
[6]; read-out: EC50 (nM) Mean, strain 09STF037
  EC50: 8.1 nM
[6]; read-out: EC50 (nM) Mean, strain 09STF112
  EC50: 18.7 nM
[6]; read-out: EC50 (nM) Mean, strain 09STIR20.3
  EC50: 8.1 nM
[6]; read-out: EC50 (nM) Mean, strain Flu21 (SDHC1_A84I)
  EC50: 163 nM
[6]; read-out: EC50 (nM) Mean, strain IPO323
  EC50: 4.5 nM
[6]; read-out: EC50 (nM) Mean, strain IPO94269
  EC50: 4.7 nM
[6]; read-out: EC50 (nM) Mean, strain KO_SDHC1_T1
  EC50: 377 nM
[6]; read-out: EC50 (nM) Mean, strain KO_SDHC1_T3
  EC50: 230 nM
[6]; read-out: EC50 (nM) Mean, strain KO_SDHC3_T4
  EC50: 5.1 nM
[6]; read-out: EC50 (nM) Mean, strain KO_SDHC3_T13
  EC50: 5.6 nM
[6]; read-out: EC50 (nM) Mean, strain pTet::SDHC3_I78A_T1
  EC50: 4.8 nM
[6]; read-out: EC50 (nM) Mean, strain pTet::SDHC3_I78A_T5
  EC50: 6 nM
[6]; read-out: EC50 (nM) Mean, strain pTet::SDHC3_I78A_T15
  EC50: 4.9 nM
[6]; read-out: EC50 (nM) Mean, strain pTet::SDHC3_I78A_T35
  EC50: 2.9 nM
[6]; read-out: EC50 (nM) Mean, strain pTet::SDHC3_T1
  EC50: 164 nM
[6]; read-out: EC50 (nM) Mean, strain pTet::SDHC3_T2
  EC50: 160 nM
[6]; read-out: EC50 (nM) Mean, strain pTet::SDHC3_T3
  EC50: 108 nM
[6]; read-out: EC50 (nM) Mean, strain pTet::SDHC3_T7
  EC50: 183 nM
[7]; strain 06STD024
  Growth phenotype on SDHI-amended plate: Weak
[7]; strain 06STD024, listed as pydiflumetofen
  Growth phenotype on SDHI-amended plate: weak growth
[7]; strain 07STGB009
  Growth phenotype on SDHI-amended plate: Weak
[7]; strain 07STGB009, listed as pydiflumetofen
  Growth phenotype on SDHI-amended plate: weak growth
[7]; strain 09STD041
  Growth phenotype on SDHI-amended plate: Very weak
[7]; strain 09STD053
  Growth phenotype on SDHI-amended plate: No
[7]; strain 09STF011
  Growth phenotype on SDHI-amended plate: Weak
[7]; strain 09STF037
  Growth phenotype on SDHI-amended plate: Very weak
[7]; strain 09STF112
  Growth phenotype on SDHI-amended plate: Very weak
[7]; strain 09STIR20.3
  Growth phenotype on SDHI-amended plate: Very weak
[7]; strain IPO323
  Growth phenotype on SDHI-amended plate: No
[7]; strain IPO94269
  Growth phenotype on SDHI-amended plate: No
